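Each compound was tested at five concentrations against cells in 96-well plates for 48 hours. GI50 = concentration required for 50% inhibition of growth. The concentration for full growth arrest is given as TGI.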
system: K-562 leukemia; assay: NCI anticancer screen, dose series, 48 h

Structure (SMILES)	TGI	GI50
O=C(c1ccccc1)C1OC12C(=O)Nc1ccccc12 (stereo not drawn)	24.3 µM	
COc1ccc2nc(NC(=O)C(=O)C(C#N)c3ccc([N+](=O)[O-])cc3)sc2c1 (stereo not drawn)	> 100 µM	
O=C(O)[C@H](NS(=O)(=O)c1ccc([N+](=O)[O-])cc1)c1ccccc1	> 100 µM	
CC(C)C[C@H](NC(=O)/C=C/Cn1ccc2ccccc2c1=O)B(O)O	> 100 µM	6 µM
S=C1OC2CCCC[C@H]2O1 (stereo partly drawn)	> 100 µM	
O=C1/C(=C/c2cccc([N+](=O)[O-])c2)COc2ccc(Br)cc21	> 100 µM	
COc1c(CCl)cc(-c2cc(=O)c3ccccc3s2)cc1CCl	> 100 µM	
CSC(C1c2ccccc2N(c2ccc(C)cc2)c2[nH]c(=O)n(C)c(=O)c21)S(=O)(=O)c1ccc(C)cc1 (stereo not drawn)	> 100 µM	
CCOC(=O)NC(=O)c1cn(CCCOC(=O)CCCCCCCCCCC(=O)OCCCn2cc(C(=O)NC(=O)OCC)c(=O)[nH]c2=O)c(=O)[nH]c1=O	> 100 µM	
COc1cc(/C=C(\C#N)c2ccccc2)cc(OC)c1	79.7 µM	
N#Cc1cccnc1Cl	> 100 µM	
CCCCCCCCCCCC(=O)OCC1OC(OC)C(NC(=O)N(CCCl)N=O)C(O)C1O (stereo not drawn)	31.1 µM	
C=CC/C=C/C/C=C/CCCCCCCc1cccc(O)c1C(=O)O	> 100 µM	
CCn1c(SCc2ccc(C)cc2)nnc1-c1nn(-c2ccc(Cl)cc2Cl)c(-c2ccc(Cl)cc2)c1C	10.4 µM	0.836 µM
COc1ccc(OC)c2c(C(=O)O)c(Cc3ccccc3)ccc12	> 100 µM	
O=C(Nc1c(Cl)cc([N+](=O)[O-])cc1Cl)C(=O)C(C1OC(=O)c2ccccc21)[N+](=O)[O-] (stereo not drawn)	> 100 µM	
Cc1c(C(=O)/C=C/c2ccccc2)[n+](=O)c2ccccc2n1[O-]	51.9 µM	
CN(CCC#N)c1ccc(/C=C(\C#N)c2ccc(Br)cc2)cc1	> 100 µM	3.5 µM
N#CC1CC2(C1)OCCS2 (stereo not drawn)	> 100 µM	
C1C[OH+]CC[OH+]CC[OH+]CC[OH+]CC[OH+]1.[Cl-].[V]	> 100 µM	> 100 µM
c1ccc(C2Nc3ccccc3C3OCCCC23)cc1 (stereo not drawn)	> 100 µM	

system: KM12 colon; assay: NCI anticancer screen, dose series, 48 h

Structure (SMILES)	GI50	TGI
Nc1ccc(-c2nc3ccc(Cc4ccc5nc(-c6ccc(N)cc6)[nH]c5c4)cc3[nH]2)cc1	1.37 µM	3.05 µM
O=C1[C@@H]2C(c3ccccc3F)=NO[C@@H]2C(=O)N1c1ccc(Cc2ccc(N3C(=O)[C@H]4C(c5ccccc5F)=NO[C@H]4C3=O)cc2)cc1		> 100 µM
C=CCc1ccc(Oc2cc(CC=C)c3c(c2O)O[C@@H](CO)[C@H]3c2ccc(O)c(-c3cc(CC=C)ccc3O)c2)cc1		> 100 µM
Cn1c2ccccc2c(=O)c2ccc(Cl)cc21		> 10 µM
CC(CO)(CO)NCCCCn1ccc2c1C(=O)c1c(c(O)c3ccccc3c1O)C2=O	1.4 µM	2.7 µM
O=C(NCO)NCOCn1c(=O)n(CO)c(=O)n(CO)c1=O		> 62.8 µM
Clc1ccc2c(c1)-c1c3c(nn1-c1ccccc1)-c1ccccc1SC3O2 (stereo not drawn)		> 100 µM
CCSc1nc(SCC)c2cn[nH]c2n1	42 µM	> 100 µM
COc1ccc(CCN2COc3c([C@@H](C)CCC=C(C)C)ccc(C)c3C2)cc1OC	2.86 µM	9.64 µM
O=C1OC2CCCC[C@@H]2C2C[C@]34CCCCC3[C@@H](C(=O)O4)C12 (stereo partly drawn)		> 100 µM
CN(C)c1cc[c]([Sn]([c]2ccc(N(C)C)cc2)([c]2ccc(N(C)C)cc2)[c]2ccc(N(C)C)cc2)cc1	5.88 µM	22.7 µM
CCCSc1nc(COC(=O)NC)c(COC(=O)NC)n1C		> 100 µM
O=C1CCC(O)=C1N=Nc1ccccc1		> 100 µM
CCN(CC)c1ccc(N=Nc2ccc(-c3nc4ccc[n+](C)c4s3)cc2)cc1		10.9 µM
Cn1c(=O)c(Cc2ccccc2F)cc2cnc(NC3CCOCC3)nc21	> 25 µM	> 25 µM
O=C1CSC(/C(=N/Nc2ccccc2)c2nc3ccccc3[nH]2)=N1		> 100 µM
Cc1[nH]c2ccccc2c(=O)c1CC=C(Cl)Cl	> 100 µM	> 100 µM
COc1ccc2nc(NC(=O)C(=O)C(C#N)c3ccc([N+](=O)[O-])cc3)sc2c1 (stereo not drawn)		> 100 µM
O=C(O)[C@H](NS(=O)(=O)c1ccc([N+](=O)[O-])cc1)c1ccccc1		> 100 µM

Structure (SMILES)	GI50	TGI
CC(C)C[C@H](NC(=O)/C=C/Cn1ccc2ccccc2c1=O)B(O)O	4.54 µM	19 µM
S=C1OC2CCCC[C@H]2O1 (stereo partly drawn)		> 100 µM
O=C1/C(=C/c2cccc([N+](=O)[O-])c2)COc2ccc(Br)cc21		> 100 µM
COc1c(CCl)cc(-c2cc(=O)c3ccccc3s2)cc1CCl		> 100 µM
CCOC(=O)NC(=O)c1cn(CCCOC(=O)CCCCCCCCCCC(=O)OCCCn2cc(C(=O)NC(=O)OCC)c(=O)[nH]c2=O)c(=O)[nH]c1=O		> 100 µM
COc1cc(/C=C(\C#N)c2ccccc2)cc(OC)c1		> 100 µM
N#Cc1cccnc1Cl		> 100 µM
CCCCCCCCCCCC(=O)OCC1OC(OC)C(NC(=O)N(CCCl)N=O)C(O)C1O (stereo not drawn)		37.1 µM
C=CC/C=C/C/C=C/CCCCCCCc1cccc(O)c1C(=O)O		> 100 µM
CCn1c(SCc2ccc(C)cc2)nnc1-c1nn(-c2ccc(Cl)cc2Cl)c(-c2ccc(Cl)cc2)c1C	1.04 µM	6.31 µM
COc1ccc(OC)c2c(C(=O)O)c(Cc3ccccc3)ccc12		> 100 µM
O=C(Nc1c(Cl)cc([N+](=O)[O-])cc1Cl)C(=O)C(C1OC(=O)c2ccccc21)[N+](=O)[O-] (stereo not drawn)		> 100 µM
Cc1c(C(=O)/C=C/c2ccccc2)[n+](=O)c2ccccc2n1[O-]		29.9 µM
CN(CCC#N)c1ccc(/C=C(\C#N)c2ccc(Br)cc2)cc1	3.7 µM	> 100 µM
N#CC1CC2(C1)OCCS2 (stereo not drawn)		> 100 µM
COc1cc(NC(C)CCCN)c2nccc(C)c2c1 (stereo not drawn)		32.5 µM
C1C[OH+]CC[OH+]CC[OH+]CC[OH+]CC[OH+]1.[Cl-].[V]	26.9 µM	> 100 µM
c1ccc(C2Nc3ccccc3C3OCCCC23)cc1 (stereo not drawn)		> 100 µM

system: MDA-MB-231 breast; assay: NCI anticancer screen, dose series, 48 h

Structure (SMILES)	GI50	TGI
Nc1ccc(-c2nc3ccc(Cc4ccc5nc(-c6ccc(N)cc6)[nH]c5c4)cc3[nH]2)cc1	2.14 µM	5.18 µM
CCSc1nc(SCC)c2cn[nH]c2n1	23.2 µM	> 100 µM
COc1ccc(CCN2COc3c([C@@H](C)CCC=C(C)C)ccc(C)c3C2)cc1OC	2.76 µM	9.37 µM
Cn1c(=O)c(Cc2ccccc2F)cc2cnc(NC3CCOCC3)nc21	> 25 µM	> 25 µM
Cc1[nH]c2ccccc2c(=O)c1CC=C(Cl)Cl	31 µM	> 100 µM
C1CCC([PH+](C2CCCCC2)C2CCCCC2[PH+](C2CCCCC2)C2CCCCC2)CC1.O=C(C1[CH-]CCCC1)C1CCCC[N-]1.[Au] (stereo not drawn)	0.223 µM	0.713 µM
CC(C)C[C@H](NC(=O)/C=C/Cn1ccc2ccccc2c1=O)B(O)O	2.85 µM	8.14 µM
CCn1c(SCc2ccc(C)cc2)nnc1-c1nn(-c2ccc(Cl)cc2Cl)c(-c2ccc(Cl)cc2)c1C	2.35 µM	8.54 µM
CN(CCC#N)c1ccc(/C=C(\C#N)c2ccc(Br)cc2)cc1	4.72 µM	> 100 µM

system: OVCAR-4 ovarian; assay: NCI anticancer screen, dose series, 48 h

Structure (SMILES)	TGI	GI50
O=C1[C@@H]2C(c3ccccc3F)=NO[C@@H]2C(=O)N1c1ccc(Cc2ccc(N3C(=O)[C@H]4C(c5ccccc5F)=NO[C@H]4C3=O)cc2)cc1	> 100 µM	
C=CCc1ccc(Oc2cc(CC=C)c3c(c2O)O[C@@H](CO)[C@H]3c2ccc(O)c(-c3cc(CC=C)ccc3O)c2)cc1	> 100 µM	
Cn1c2ccccc2c(=O)c2ccc(Cl)cc21	> 10 µM	
O=C(NCO)NCOCn1c(=O)n(CO)c(=O)n(CO)c1=O	> 77 µM	
CCSc1nc(SCC)c2cn[nH]c2n1	> 100 µM	84.1 µM
COc1ccc(CCN2COc3c([C@@H](C)CCC=C(C)C)ccc(C)c3C2)cc1OC	16 µM	2.99 µM
O=C1OC2CCCC[C@@H]2C2C[C@]34CCCCC3[C@@H](C(=O)O4)C12 (stereo partly drawn)	> 100 µM	
CN(C)c1cc[c]([Sn]([c]2ccc(N(C)C)cc2)([c]2ccc(N(C)C)cc2)[c]2ccc(N(C)C)cc2)cc1	20.7 µM	7.65 µM
CCCSc1nc(COC(=O)NC)c(COC(=O)NC)n1C	> 100 µM	
